Data as given in article PMC6501426 (Clinical Epigenetics, 2019).

Legend:
human DNMT1 = target: T1, human DNMT1 (Homo sapiens, UniProt P26358); assay: DNMT1 assay (radiolabeled SAM, Flashplate); format: biochemical
T1 construct: His; made in house
Protocol: His-DNMT1 (182 kDa, human) was cloned, expressed, and purified as described by Lee et al.. The DNMT1 assay was performed according to Gros et al.. Briefly, the DNMT1 enzymatic assay is based on the use of radiolabeled SAM, and the methylation occurs in homogeneous phase in 384-well microplates. The reaction is performed with DNMT1 at the final concentration of 90 nM in a total volume of 10 μL including also the chemical compound to be tested at the desired concentration, 1.25 μM of SAM//[methyl-^3H] SAM (3TBq/mmol) mix in a ratio of 3:1 and 0.3 μM of biotinylated DNA duplex. DNMT1, as “maintenance” methyltransferase, requires hemimethylated DNA for the reaction. After 2 h incubation at 37 °C, 8 μL of the reaction’s solution is transferred into a streptavidin 96-well scintillant coated Flashplate^TM containing 190 μL of […] in 50 mM Tris-HCl (pH 7.4). The Flashplate^TM is then agitated at room temperature for 1 h and washed. The plate is read with TopCount (PerkinElmer, Villebon-sur-Yvette, France). The greater the DNMT1 inhibition, the lower will be the scintillation signal correlated to the incorporation of the tritiated methyl groups. In this assay, the negative and positive controls were defined as wells without enzyme and wells without any compound but just DMSO, respectively.

[1] = tested on: RPMI1788 (normal B lymphocytes); assay: Cell viability, trypan blue exclusion; format: cell-based; details: Homo sapiens, RPMI-1788; 48 h of treatment; normal cells; read-out: IC50 ± SD, cell viability, RPMI1788
Protocol: U-937 (acute myeloid leukemia), RAJI (Burkitt’s lymphoma), PC-3 (prostate cancer), and MDA-MB-231 (breast cancer) cell lines were obtained from the Deutsche Sammlung für Mikroorganismen and Zellkulturen (DSZM, Braunschweig, Germany) and were cultured in RPMI 1640 (Lonza, Verviers, Belgium) complemented with 10% FBS (Lonza, Verviers, Belgium) and 1% antibiotic-antimycotic (Lonza). RPMI1788 (normal B lymphocytes) and KG-1 (acute myeloid leukemia) cell lines were obtained from the American Type Culture Collection (ATCC) and were maintained in RPMI 1640 complemented with 20% FBS and IMDM complemented with 10% FBS, respectively. Cell lines were treated with compounds at the indicated concentrations in the exponential growth phase.
(§1) Proliferation and viability of U-937, KG-1, RAJI, PC-3, MDA-MB-231, RPMI1788, PBMCs, and PHA_PBMCs were assessed by trypan blue exclusion assays at the indicated time points. Nuclear morphology changes associated with apoptosis and necrosis were evaluated by fluorescence microscopy after Hoechst and propidium iodide (PI) staining as previously described.
IC50 values of compounds against cellular viability were determined by using nonlinear regression fitting curves with GraphPad Prism 8 or CalcuSyn software The t test used for statistical analyses was performed with GraphPad Prism 8. […]

RPMI1788 cells = assay: Nuclear morphology analysis (Hoechst/PI); format: cell-based; details: 72 h; starting from 5 μM; normal cells
Protocol: as §1
Fig. 6 Nuclear morphology analysis in U-937, RAJI, KG-1, and RPMI1788 cells. Cells were treated with increasing doses of MC3353. Upper panels—after 72 h of treatment, the nuclear morphology was analyzed by fluorescence microscopy after Hoechst and PI staining. Pictures are representative of three independent experiments. Lower panels—the results of cell counting are represented as the mean (± SD) of three independent experiments

AurA/Aur2 kinase (h) = target: T2, AurA/Aur2 kinase (h) (Homo sapiens, UniProt O14965); assay: Kinase panel (Cerep); format: biochemical; details: read-out: % inhibition at 10 µM by MC3353, AurA/Aur2 kinase (h), ATP 10 μM
T2 construct: purchased Eurofins Cerep
Protocol: (§2) The test compound, reference compound or water (control) were mixed with the enzyme (for the exact amount see table below) in the appropriate buffer. Thereafter, the reaction was initiated by adding the required amount of the appropriate substrate and of ATP, and the mixture is incubated at room temperature (variable reaction time, see table below). For control basal measurements, the enzyme was omitted from the reaction mixture. Following incubation, the reaction was stopped by adding 13 mM EDTA. After 5 min, the proper antibody labelled with europium chelate was added. After 60 more min, the fluorescence transfer was measured at λex=337 nm, λem=620 nm and λem=665 nm using a microplate reader (Envision, Perkin Elmer). The enzyme activity was determined by dividing the signal measured at 665 nm by that measured at 620 nm (ratio). The results are expressed as a percent inhibition of the control enzyme activity.

CDC2/CDK1 (h) (cycB) = target: T3, CDC2/CDK1 (h) (cycB) (Homo sapiens, UniProt P06493); assay: Kinase panel (Cerep); format: biochemical; details: read-out: % inhibition at 10 µM by MC3353, CDC2/CDK1 (h) (cycB), ATP 10 μM
T3 construct: purchased Eurofins Cerep
Protocol: as §2

CaMK2alpha (h) = target: T4, CaMK2alpha (h) (Homo sapiens, UniProt Q9UQM7); assay: Kinase panel (Cerep); format: biochemical; details: read-out: % inhibition at 10 µM by MC3353, CaMK2alpha (h), ATP 10 μM
T4 construct: purchased Eurofins Cerep
Protocol: as §2

GSK3beta (h) = target: T5, GSK3beta (h) (Homo sapiens, UniProt P49841); assay: Kinase panel (Cerep); format: biochemical; details: read-out: % inhibition at 10 µM by MC3353, GSK3beta (h), ATP 10 μM
T5 construct: purchased Eurofins Cerep
Protocol: as §2

KDR kinase (h) (VEGFR2) = target: T6, KDR kinase (h) (VEGFR2) (Homo sapiens, UniProt P35968); assay: Kinase panel (Cerep); format: biochemical; details: read-out: % inhibition at 10 µM by MC3353, KDR kinase (h) (VEGFR2), ATP 25 μM
T6 construct: purchased Eurofins Cerep
Protocol: as §2

MARK1 (h) = target: T7, MARK1 (h) (Homo sapiens, UniProt Q9P0L2); assay: Kinase panel (Cerep); format: biochemical; details: read-out: % inhibition at 10 µM by MC3353, MARK1 (h), ATP 1 μM
T7 construct: purchased Eurofins Cerep
Protocol: as §2

MNK2 (h) = target: T8, MNK2 (h) (Homo sapiens, UniProt Q9HBH9); assay: Kinase panel (Cerep); format: biochemical; details: read-out: % inhibition at 10 µM by MC3353, MNK2 (h), ATP 100 μM
T8 construct: purchased Eurofins Cerep
Protocol: as §2

PDK1 (h) = target: T9, PDK1 (h) (Homo sapiens, UniProt O15530); assay: Kinase panel (Cerep); format: biochemical; details: read-out: % inhibition at 10 µM by MC3353, PDK1 (h), ATP 10 μM
T9 construct: purchased Eurofins Cerep
Protocol: as §2

T1 sequence (P26358 whole entry): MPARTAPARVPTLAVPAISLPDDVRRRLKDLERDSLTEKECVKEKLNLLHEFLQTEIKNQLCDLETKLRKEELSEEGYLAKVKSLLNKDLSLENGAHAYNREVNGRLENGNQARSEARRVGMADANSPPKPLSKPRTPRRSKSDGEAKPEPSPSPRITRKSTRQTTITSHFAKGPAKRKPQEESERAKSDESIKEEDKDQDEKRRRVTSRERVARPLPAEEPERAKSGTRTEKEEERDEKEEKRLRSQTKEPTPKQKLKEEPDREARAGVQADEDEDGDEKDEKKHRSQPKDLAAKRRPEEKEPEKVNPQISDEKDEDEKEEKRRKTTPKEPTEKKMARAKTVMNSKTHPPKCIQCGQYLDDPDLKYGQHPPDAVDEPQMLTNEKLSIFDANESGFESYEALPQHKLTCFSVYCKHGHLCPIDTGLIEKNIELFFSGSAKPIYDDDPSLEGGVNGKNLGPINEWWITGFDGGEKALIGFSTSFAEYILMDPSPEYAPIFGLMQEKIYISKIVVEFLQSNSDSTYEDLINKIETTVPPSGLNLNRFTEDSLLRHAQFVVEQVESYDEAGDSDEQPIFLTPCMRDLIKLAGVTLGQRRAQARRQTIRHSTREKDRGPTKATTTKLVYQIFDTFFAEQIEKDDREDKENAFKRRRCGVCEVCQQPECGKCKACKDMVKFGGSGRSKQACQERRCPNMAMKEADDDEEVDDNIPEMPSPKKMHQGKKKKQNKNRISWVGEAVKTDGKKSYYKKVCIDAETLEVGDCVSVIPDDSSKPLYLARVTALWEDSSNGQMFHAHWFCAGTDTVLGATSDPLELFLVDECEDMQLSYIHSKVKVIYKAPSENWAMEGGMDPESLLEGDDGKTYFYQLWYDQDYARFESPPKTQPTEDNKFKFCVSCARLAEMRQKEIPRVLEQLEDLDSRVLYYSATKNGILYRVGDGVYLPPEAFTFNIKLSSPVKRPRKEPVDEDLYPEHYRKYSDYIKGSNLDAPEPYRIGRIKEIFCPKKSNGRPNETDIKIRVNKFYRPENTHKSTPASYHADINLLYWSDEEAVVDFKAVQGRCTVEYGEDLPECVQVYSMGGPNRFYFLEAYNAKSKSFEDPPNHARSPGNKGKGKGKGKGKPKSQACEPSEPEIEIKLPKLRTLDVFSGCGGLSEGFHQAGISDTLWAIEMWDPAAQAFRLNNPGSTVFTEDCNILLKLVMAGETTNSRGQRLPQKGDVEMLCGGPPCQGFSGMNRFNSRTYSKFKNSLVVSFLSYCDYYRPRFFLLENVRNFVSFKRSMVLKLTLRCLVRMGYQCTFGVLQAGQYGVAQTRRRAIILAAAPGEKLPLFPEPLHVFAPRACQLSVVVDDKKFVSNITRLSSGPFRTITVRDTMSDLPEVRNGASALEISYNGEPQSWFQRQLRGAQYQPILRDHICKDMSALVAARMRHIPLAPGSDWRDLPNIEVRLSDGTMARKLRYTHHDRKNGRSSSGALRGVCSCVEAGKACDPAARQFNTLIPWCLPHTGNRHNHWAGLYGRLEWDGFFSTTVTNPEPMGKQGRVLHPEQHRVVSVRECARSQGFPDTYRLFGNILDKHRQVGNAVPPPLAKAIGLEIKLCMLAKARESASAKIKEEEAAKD
T9 sequence (O15530 whole entry): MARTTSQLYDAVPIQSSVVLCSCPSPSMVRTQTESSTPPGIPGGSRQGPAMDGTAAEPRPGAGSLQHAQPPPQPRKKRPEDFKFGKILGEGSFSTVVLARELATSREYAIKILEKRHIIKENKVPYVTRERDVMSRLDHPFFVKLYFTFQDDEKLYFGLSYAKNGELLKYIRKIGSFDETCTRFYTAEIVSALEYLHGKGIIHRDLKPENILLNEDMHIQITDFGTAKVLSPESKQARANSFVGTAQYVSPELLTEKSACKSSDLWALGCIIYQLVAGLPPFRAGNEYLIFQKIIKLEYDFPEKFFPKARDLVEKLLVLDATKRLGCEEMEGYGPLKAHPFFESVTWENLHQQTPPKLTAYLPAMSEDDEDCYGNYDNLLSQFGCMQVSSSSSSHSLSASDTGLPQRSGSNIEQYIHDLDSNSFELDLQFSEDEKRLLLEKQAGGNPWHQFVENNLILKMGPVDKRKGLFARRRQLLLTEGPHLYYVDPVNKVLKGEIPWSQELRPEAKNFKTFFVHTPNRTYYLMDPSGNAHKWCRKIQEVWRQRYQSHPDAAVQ
T2 sequence (O14965 whole entry): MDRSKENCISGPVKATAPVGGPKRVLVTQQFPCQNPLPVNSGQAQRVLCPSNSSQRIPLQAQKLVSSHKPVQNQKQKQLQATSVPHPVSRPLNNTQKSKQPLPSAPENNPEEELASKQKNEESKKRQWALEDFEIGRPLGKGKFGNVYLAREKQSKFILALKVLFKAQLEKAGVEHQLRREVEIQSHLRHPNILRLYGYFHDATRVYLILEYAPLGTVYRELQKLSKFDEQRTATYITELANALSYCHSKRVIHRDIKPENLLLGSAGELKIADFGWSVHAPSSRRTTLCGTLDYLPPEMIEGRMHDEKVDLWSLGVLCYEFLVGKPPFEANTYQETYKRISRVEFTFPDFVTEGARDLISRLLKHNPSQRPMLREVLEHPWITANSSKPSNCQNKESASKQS
T4 sequence (Q9UQM7 whole entry): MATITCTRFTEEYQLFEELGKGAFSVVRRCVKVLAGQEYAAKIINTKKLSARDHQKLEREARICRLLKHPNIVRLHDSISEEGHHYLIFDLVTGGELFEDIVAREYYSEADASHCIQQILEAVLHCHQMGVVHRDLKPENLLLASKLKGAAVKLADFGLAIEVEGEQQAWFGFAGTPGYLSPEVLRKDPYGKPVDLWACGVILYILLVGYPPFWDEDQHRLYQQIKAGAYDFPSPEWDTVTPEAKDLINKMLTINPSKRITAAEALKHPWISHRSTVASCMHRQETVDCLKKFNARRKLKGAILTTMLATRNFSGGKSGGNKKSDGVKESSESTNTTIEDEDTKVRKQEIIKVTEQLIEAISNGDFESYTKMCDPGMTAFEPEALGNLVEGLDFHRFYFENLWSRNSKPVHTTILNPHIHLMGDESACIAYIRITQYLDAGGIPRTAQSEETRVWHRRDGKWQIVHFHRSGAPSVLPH
T7 sequence (Q9P0L2 whole entry): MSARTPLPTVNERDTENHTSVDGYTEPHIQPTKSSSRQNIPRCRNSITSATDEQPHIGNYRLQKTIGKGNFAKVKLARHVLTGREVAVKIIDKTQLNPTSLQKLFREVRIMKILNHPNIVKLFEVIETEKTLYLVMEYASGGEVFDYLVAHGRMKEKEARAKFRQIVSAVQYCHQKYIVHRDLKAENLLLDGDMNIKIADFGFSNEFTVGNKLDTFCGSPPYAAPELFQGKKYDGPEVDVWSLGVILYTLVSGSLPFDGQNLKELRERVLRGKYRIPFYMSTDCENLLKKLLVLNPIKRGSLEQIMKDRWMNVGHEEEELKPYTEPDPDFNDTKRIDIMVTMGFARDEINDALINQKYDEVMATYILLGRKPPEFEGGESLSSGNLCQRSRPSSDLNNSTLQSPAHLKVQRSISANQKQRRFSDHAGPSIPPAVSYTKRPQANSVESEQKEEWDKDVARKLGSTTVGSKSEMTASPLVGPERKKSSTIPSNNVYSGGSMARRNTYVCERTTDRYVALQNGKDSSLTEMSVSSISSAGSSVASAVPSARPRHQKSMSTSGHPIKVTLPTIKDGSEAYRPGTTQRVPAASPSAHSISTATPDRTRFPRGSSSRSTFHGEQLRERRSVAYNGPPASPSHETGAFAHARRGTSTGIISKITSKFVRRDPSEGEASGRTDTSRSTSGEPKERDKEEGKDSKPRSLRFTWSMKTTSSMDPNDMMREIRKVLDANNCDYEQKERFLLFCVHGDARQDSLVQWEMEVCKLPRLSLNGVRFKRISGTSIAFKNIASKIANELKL
T8 sequence (Q9HBH9 whole entry): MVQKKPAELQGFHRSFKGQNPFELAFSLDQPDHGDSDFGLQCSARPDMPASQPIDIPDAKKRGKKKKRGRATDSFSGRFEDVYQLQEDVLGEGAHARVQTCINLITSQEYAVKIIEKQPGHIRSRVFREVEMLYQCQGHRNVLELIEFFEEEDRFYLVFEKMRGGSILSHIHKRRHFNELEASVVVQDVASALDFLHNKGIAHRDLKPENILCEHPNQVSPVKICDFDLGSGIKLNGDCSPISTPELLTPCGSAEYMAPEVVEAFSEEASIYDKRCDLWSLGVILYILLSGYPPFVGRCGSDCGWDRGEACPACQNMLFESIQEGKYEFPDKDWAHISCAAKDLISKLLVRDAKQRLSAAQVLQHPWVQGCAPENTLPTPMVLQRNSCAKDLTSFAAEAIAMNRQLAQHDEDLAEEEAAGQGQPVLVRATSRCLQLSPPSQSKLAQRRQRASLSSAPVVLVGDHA
T3 sequence (P06493 whole entry): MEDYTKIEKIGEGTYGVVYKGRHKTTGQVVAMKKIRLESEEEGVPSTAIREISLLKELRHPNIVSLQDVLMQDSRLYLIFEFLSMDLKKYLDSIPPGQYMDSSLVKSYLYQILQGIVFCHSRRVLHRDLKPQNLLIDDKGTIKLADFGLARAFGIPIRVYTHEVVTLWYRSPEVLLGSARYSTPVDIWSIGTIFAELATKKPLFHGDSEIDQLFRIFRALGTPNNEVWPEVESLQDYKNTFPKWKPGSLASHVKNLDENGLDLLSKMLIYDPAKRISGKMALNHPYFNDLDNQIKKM
T3 sequence (P14635 whole entry partner): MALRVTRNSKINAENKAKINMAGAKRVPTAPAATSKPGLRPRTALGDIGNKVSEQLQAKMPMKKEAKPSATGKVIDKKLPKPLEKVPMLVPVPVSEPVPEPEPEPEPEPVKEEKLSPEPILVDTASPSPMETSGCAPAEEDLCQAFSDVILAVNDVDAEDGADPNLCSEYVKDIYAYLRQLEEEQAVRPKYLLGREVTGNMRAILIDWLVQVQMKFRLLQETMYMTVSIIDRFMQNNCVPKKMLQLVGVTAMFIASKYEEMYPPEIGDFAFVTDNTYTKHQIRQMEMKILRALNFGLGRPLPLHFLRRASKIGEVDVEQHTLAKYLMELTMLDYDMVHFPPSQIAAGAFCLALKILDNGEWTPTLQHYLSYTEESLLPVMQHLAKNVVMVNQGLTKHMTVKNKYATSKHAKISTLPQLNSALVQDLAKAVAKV

O=C(Nc1ccc(NC(=O)c2ccc(Nc3ccnc4ccccc34)cc2)cc1)OCc1ccccc1 [MC3353, Benzyl (4-(4-(quinolin-4-ylamino)benzamido)phenyl)carbamate]
EC50 (human DNMT1; radioactivity assay, at least two independent experiments, read-out: EC50 ± SD, hDNMT1): 67 ± 4 µM | fold less effective than SGI-1027 against hDNMT1 (human DNMT1; ratio of EC50 values): 5.6 fold | fold more potent than RG-108 against hDNMT1 (human DNMT1; ratio of EC50 values): 6 fold | IC50 [1]: 2.4 ± 0.2 µM | cell death modality, RPMI1788 (RPMI1788 cells): mixed type of cell death induction, mainly necrosis | inhibition at 10 µM (AurA/Aur2 kinase (h)): 4% | inhibition at 10 µM (CDC2/CDK1 (h) (cycB)): -25% | inhibition at 10 µM (CaMK2alpha (h)): -22% | inhibition at 10 µM (GSK3beta (h)): -29% | inhibition at 10 µM (KDR kinase (h) (VEGFR2)): -111% | inhibition at 10 µM (MARK1 (h)): -116% | inhibition at 10 µM (MNK2 (h)): 21% | inhibition at 10 µM (PDK1 (h)): -149%
